ChEMBL document CHEMBL1138140, “Inhibition of DNA helicases with DNA-competitive inhibitors” (Bioorg Med Chem Lett, 2006)

Key:
Format in all cases: functional
DNA helicase IV [1] = molecular target: T1, DNA helicase IV (Escherichia coli K-12, UniProt P15038); experiment: Inhibition of ATPase activity of Helicase4 from Escherichia coli in presence of ATP (5x Km(ATP)) and dT25 (5x KDNA)
T1 sequence (P15038 whole entry): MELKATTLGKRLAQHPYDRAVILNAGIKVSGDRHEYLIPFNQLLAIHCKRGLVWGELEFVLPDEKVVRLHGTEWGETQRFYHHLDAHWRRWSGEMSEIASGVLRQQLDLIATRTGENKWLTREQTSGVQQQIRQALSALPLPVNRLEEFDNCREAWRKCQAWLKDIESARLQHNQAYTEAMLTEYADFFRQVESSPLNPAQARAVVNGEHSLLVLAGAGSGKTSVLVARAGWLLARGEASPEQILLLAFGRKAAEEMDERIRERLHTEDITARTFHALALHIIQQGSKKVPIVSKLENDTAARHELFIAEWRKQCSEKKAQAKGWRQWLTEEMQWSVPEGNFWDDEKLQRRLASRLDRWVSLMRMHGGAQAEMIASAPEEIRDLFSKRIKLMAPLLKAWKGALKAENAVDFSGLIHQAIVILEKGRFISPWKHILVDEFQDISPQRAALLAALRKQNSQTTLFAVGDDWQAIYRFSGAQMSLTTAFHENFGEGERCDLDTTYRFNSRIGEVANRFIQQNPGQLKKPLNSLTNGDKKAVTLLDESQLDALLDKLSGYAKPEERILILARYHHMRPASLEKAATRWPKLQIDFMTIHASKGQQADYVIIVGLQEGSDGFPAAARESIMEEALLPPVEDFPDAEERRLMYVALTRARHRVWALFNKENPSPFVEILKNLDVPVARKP

[2] = molecular target: T2, DNA helicase IV (Escherichia coli K-12) (UniProt P15038); experiment: Inhibition of helicase activity of Helicase4 from Escherichia coli at 10 uM
T2 sequence (whole entry): T1 sequence (P15038 whole entry)

[3] = molecular target: T2, DNA helicase IV (Escherichia coli K-12); experiment: Inhibition of ATPase activity of Helicase4 from Escherichia coli at 10 uM
DNA helicase IV [4] = molecular target: DNA helicase IV (Escherichia coli K-12, UniProt P15038, Y473A); experiment: Inhibition of ATPase activity of Tyr473Ala mutated Helicase4 in presence of ATP (5x Km(ATP)) and dT25 (5x KDNA)
Sequence of DNA helicase IV (Escherichia coli K-12, UniProt P15038, Y473A) (P15038 whole entry Y473A): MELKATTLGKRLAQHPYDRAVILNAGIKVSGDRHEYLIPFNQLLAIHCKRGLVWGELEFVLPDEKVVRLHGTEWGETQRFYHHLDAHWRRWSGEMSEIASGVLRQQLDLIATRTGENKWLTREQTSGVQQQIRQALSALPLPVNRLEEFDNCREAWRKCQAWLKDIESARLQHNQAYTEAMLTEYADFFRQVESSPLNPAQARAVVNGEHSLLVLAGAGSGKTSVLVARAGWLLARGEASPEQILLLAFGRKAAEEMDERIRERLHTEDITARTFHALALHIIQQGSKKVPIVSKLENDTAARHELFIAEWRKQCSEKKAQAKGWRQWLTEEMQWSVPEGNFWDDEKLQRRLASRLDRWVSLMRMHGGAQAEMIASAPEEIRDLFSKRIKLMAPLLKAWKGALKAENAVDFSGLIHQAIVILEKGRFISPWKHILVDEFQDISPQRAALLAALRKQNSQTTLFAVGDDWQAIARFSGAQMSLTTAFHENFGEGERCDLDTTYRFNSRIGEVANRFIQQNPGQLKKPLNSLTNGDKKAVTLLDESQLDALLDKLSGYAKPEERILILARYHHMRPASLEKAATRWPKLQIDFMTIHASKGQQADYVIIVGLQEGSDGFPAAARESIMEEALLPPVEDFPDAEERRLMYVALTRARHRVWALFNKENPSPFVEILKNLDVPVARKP

IC50 (DNA helicase IV [1]) [µM] | inhibition [2] [%] | inhibition [3] [%] | Compound | IC50 (DNA helicase IV [4]) [µM]
3 | 93 | 98 | CC(C(=O)O)c1ccc2c(c1)C(=O)c1ccccc1CS2 (configuration not stated) | 
 | 0 | 2 | O=C(O)Cc1ccc2c(c1)C(=O)c1ccccc1C[S+]2[O-] (configuration not stated) | 
 | 5 | 0 | CCOC(=O)Cc1ccc2c(c1)C(=O)c1ccccc1CS2 | 
7 | 53 | 78 | Cc1ccc2c(c1)CSc1ccc(CC(=O)O)cc1C2=O | 
1.4 | 89 | 99 | CC(=O)Nc1ccc2c(c1)C(=O)c1cc(CC(=O)O)ccc1SC2 | 

Compound | IC50 (DNA helicase IV [1]) [µM] | inhibition [2] [%] | inhibition [3] [%] | IC50 (DNA helicase IV [4]) [µM]
O=C(O)Cc1ccc2c(c1)C(=O)c1ccccc1CS2 | 5 | 79 | 93 | 5.5
